Results taken from PubChem BioAssay (NCI).
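GI50: concentration for 50% inhibition of growth. TGI is the concentration that stops growth completely.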

Tests used:
Assay in all cases: NCI anticancer screen, dose series, 384-well format
MDA-MB-468 breast = system: MDA-MB-468 breast
T-47D breast = system: T-47D breast
HCC-2998 colon = system: HCC-2998 colon
OVCAR-5 ovarian = system: OVCAR-5 ovarian
ACHN renal = system: ACHN renal
UACC-62 melanoma = system: UACC-62 melanoma
HOP-62 NSCLC = system: HOP-62 NSCLC
NCI-H23 lung = system: NCI-H23 lung
NCI-H522 lung = system: NCI-H522 lung
TK-10 renal = system: TK-10 renal
EKVX NSCLC = system: EKVX NSCLC
A549 NSCLC = system: A549 NSCLC
SW-620 colon = system: SW-620 colon
A498 renal = system: A498 renal
NCI-H226 lung = system: NCI-H226 lung
OVCAR-8 ovarian = system: OVCAR-8 ovarian
SNB-19 CNS = system: SNB-19 CNS
SF-539 CNS = system: SF-539 CNS
UO-31 renal = system: UO-31 renal
786-0 renal = system: 786-0 renal
RPMI-8226 leukemia = system: RPMI-8226 leukemia
HL-60(TB) leukemia = system: HL-60(TB) leukemia
SK-MEL-28 melanoma = system: SK-MEL-28 melanoma
SK-OV-3 ovarian = system: SK-OV-3 ovarian
OVCAR-4 ovarian = system: OVCAR-4 ovarian
OVCAR-3 ovarian = system: OVCAR-3 ovarian
SF-268 CNS = system: SF-268 CNS
LOX IMVI melanoma = system: LOX IMVI melanoma
KM12 colon = system: KM12 colon
SK-MEL-2 melanoma = system: SK-MEL-2 melanoma
HCT-116 colon = system: HCT-116 colon
MCF7 breast = system: MCF7 breast
SR leukemia = system: SR leukemia
PC-3 prostate = system: PC-3 prostate
SN12C renal = system: SN12C renal
MOLT-4 leukemia = system: MOLT-4 leukemia
SF-295 CNS = system: SF-295 CNS
BT-549 breast = system: BT-549 breast
NCI-H460 NSCLC = system: NCI-H460 NSCLC
COLO 205 colon = system: COLO 205 colon
HOP-92 NSCLC = system: HOP-92 NSCLC
K-562 leukemia = system: K-562 leukemia
CAKI-1 renal = system: CAKI-1 renal
NCI-H322M lung = system: NCI-H322M lung
IGROV1 ovarian = system: IGROV1 ovarian
DU-145 prostate = system: DU-145 prostate
NCI/ADR-RES ovarian = system: NCI/ADR-RES ovarian

With `C=CC(=O)N1CCN(CCCn2c(=O)c(-c3c(Cl)c(OC)cc(OC)c3Cl)cc3cnc(NC)nc32)CC1` the GI50 (MDA-MB-468 breast) was 0.95 µM, the TGI (MDA-MB-468 breast) was 2.68 µM and the GI50 (T-47D breast) was 2.86 µM. For the same compound, the TGI (T-47D breast) was 16.1 µM, the GI50 (HCC-2998 colon) was 9.16 µM and the TGI (HCC-2998 colon) was 22 µM. For the same compound, the GI50 (OVCAR-5 ovarian) was 18.1 µM, the TGI (OVCAR-5 ovarian) was 46.3 µM and the GI50 (ACHN renal) was 0.975 µM. It also gave a TGI (ACHN renal) of 11.3 µM, a GI50 (UACC-62 melanoma) of 1.9 µM and a TGI (UACC-62 melanoma) of 11.8 µM. It also gave a GI50 (HOP-62 NSCLC) of 3.06 µM, a TGI (HOP-62 NSCLC) of 12.1 µM and a GI50 (NCI-H23 lung) of 3.72 µM. For the same compound, the TGI (NCI-H23 lung) was 15.3 µM, the GI50 (NCI-H522 lung) was 2.66 µM and the TGI (NCI-H522 lung) was 11.8 µM. For the same compound, the GI50 (TK-10 renal) was 5.98 µM, the TGI (TK-10 renal) was 19.5 µM and the GI50 (EKVX NSCLC) was 5.95 µM. It also gave a TGI (EKVX NSCLC) of 19.6 µM, a GI50 (A549 NSCLC) of 3.23 µM and a TGI (A549 NSCLC) of 14.4 µM. It also gave a GI50 (SW-620 colon) of 3.22 µM, a TGI (SW-620 colon) of 9.31 µM and a GI50 (A498 renal) of 0.462 µM. The TGI (A498 renal) was 4.69 µM, the TGI (NCI-H226 lung) was 11.8 µM and the GI50 (OVCAR-8 ovarian) was 5.9 µM. The TGI (OVCAR-8 ovarian) was 19.2 µM, the GI50 (SNB-19 CNS) was 5.11 µM and the TGI (SNB-19 CNS) was 17.3 µM. It also gave a GI50 (SF-539 CNS) of 3.7 µM, a TGI (SF-539 CNS) of 16.4 µM and a GI50 (UO-31 renal) of 3.72 µM. For the same compound, the TGI (UO-31 renal) was 15.9 µM, the GI50 ([…]-0 renal) was 2.38 µM and the TGI (786-0 renal) was 13.7 µM. The GI50 (RPMI-8226 leukemia) was 0.759 µM, the TGI (RPMI-8226 leukemia) was 2.39 µM and the GI50 (HL-60(TB) leukemia) was 1.55 µM. For the same compound, the TGI (HL-60(TB) leukemia) was 4.2 µM, the GI50 (SK-MEL-28 melanoma) was 15.1 µM and the TGI (SK-MEL-28 melanoma) was 39.5 µM. For the same compound, the GI50 (SK-OV-3 ovarian) was 1.1 µM, the TGI (SK-OV-3 ovarian) was 9.48 µM and the GI50 (OVCAR-4 ovarian) was 3.14 µM. For the same compound, the TGI (OVCAR-4 ovarian) was 18 µM, the GI50 (OVCAR-3 ovarian) was 2.21 µM and the TGI (OVCAR-3 ovarian) was 13.6 µM. It also gave a GI50 (SF-268 CNS) of 1.22 µM, a TGI (SF-268 CNS) of 7.03 µM and a GI50 (LOX IMVI melanoma) of 2.63 µM. The TGI (LOX IMVI melanoma) was 15.6 µM, the GI50 (KM12 colon) was 6.06 µM and the TGI (KM12 colon) was 18.8 µM. For the same compound, the GI50 (SK-MEL-2 melanoma) was 1.7 µM, the TGI (SK-MEL-2 melanoma) was 5.09 µM and the GI50 (HCT-116 colon) was 3.55 µM. The TGI (HCT-116 colon) was 14.7 µM, the GI50 (MCF7 breast) was 7.95 µM and the TGI (MCF7 breast) was 20.7 µM. For the same compound, the GI50 (SR leukemia) was 1.29 µM, the TGI (SR leukemia) was 3.04 µM and the GI50 (PC-3 prostate) was 3.56 µM. The TGI (PC-3 prostate) was 12.4 µM, the GI50 (SN12C renal) was 2.36 µM and the TGI (SN12C renal) was 12.2 µM. For the same compound, the GI50 (MOLT-4 leukemia) was 0.689 µM, the TGI (MOLT-4 leukemia) was 1.96 µM and the GI50 (SF-295 CNS) was 8.31 µM. The TGI (SF-295 CNS) was 38.1 µM, the GI50 (BT-549 breast) was 0.369 µM and the TGI (BT-549 breast) was 3.1 µM. It also gave a GI50 (NCI-H460 NSCLC) of 2.51 µM, a TGI (NCI-H460 NSCLC) of 12.7 µM and a GI50 (COLO 205 colon) of 10.9 µM. For the same compound, the TGI (COLO 205 colon) was 22.9 µM, the GI50 (HOP-92 NSCLC) was 1.61 µM and the TGI (HOP-92 NSCLC) was 6.96 µM. It also gave a GI50 (K-562 leukemia) of 5.67 µM, a TGI (K-562 leukemia) of 18.3 µM and a GI50 (CAKI-1 renal) of 0.478 µM. For the same compound, the TGI (CAKI-1 renal) was 3.49 µM, the GI50 (NCI-H322M lung) was 5.16 µM and the TGI (NCI-H322M lung) was > 39.6 µM. For the same compound, the GI50 (IGROV1 ovarian) was 0.888 µM, the TGI (IGROV1 ovarian) was 7.23 µM and the GI50 (DU-145 prostate) was 4.02 µM. It also gave a TGI (DU-145 prostate) of 18.1 µM, a GI50 (NCI/ADR-RES ovarian) of 7.93 µM and a TGI (NCI/ADR-RES ovarian) of 21.3 µM.
